Measurements reported in patent US10517889B2, “Modulators of SMAD7 expression” (Ionis Pharmaceuticals, Inc., priority 2017, dated 2019).
pIC50: −log10 of the molar value. Where “and” joins values, the source holds several entries; their conditions need not be identical. Identical values can stand only once. Strand notation (5' to 3'): a small letter for the sugar, then the base; units joined by * are phosphorothioate-linked, units joined directly phosphodiester-linked; [ ] holds rarer units or linkages, { } end groups; capitals alone tell only the bases. k = constrained ethyl (cEt); [5mC] = 5-methylcytosine; d = 2'-deoxy (DNA)

Assays:
[1] = system: human SMAD7 mRNA; assay: Antisense inhibition of human SMAD7 mRNA expression in Hep3B cells by 3-10-3 cEt gapmers, 10,000 nM, electroporation (Example 2); type: cell-based; conditions: approximately 24 hours
Outline: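 Hep3B, 20,000 cells/well; electroporation, 10,000 nM ASO; ~24 h. Readout: SMAD7 mRNA by qRT-PCR (RTS5062), RIBOGREEN-normalised; % inhibition vs untreated.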

[2] = system: human SMAD7 mRNA; assay: Dose-dependent inhibition of human SMAD7 mRNA expression in Hep3B cells (Example 3, Study 1 and 2); type: cell-based; conditions: electroporation; for % inhibition of SMAD7 mRNA expression: approximately 16 hours; for pIC50: Study 2 (740-20000 nM)
Outline: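 Hep3B cells, 20,000 per well, electroporated with antisense oligonucleotide at 0.31, 1.25, 5.00 or 20.00 μM (first series) or 0.74, 2.22, 6.67 or 20.00 μM (second series). After ~16 h, SMAD7 mRNA measured by RT-qPCR (RTS5062), normalised to RIBOGREEN total RNA. Percent inhibition vs untreated cells; IC50 derived.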

[3] = Hep3B cells, 10,000 nM antisense oligonucleotide, electroporation, RT-PCR primer probe set RTS5062, relative to untreated control cells
[4] = 740 nM, Study 2, relative to untreated control cells
[5] = Hep3B cells, electroporation with 10,000 nM antisense oligonucleotide, SMAD7 mRNA by RT-PCR (RTS5062), relative to untreated control cells
[6] = SMAD7 mRNA, Hep3B cells, 10,000 nM antisense oligonucleotide, electroporation, primer probe set RTS5062, relative to untreated control cells
[7] = SMAD7 mRNA, Hep3B cells, electroporation with 10,000 nM antisense oligonucleotide, primer probe set RTS5062, relative to untreated control cells

Row | Substance | % Inhibition [1, 3] [%] | % inhibition of SMAD7 mRNA expression [2, 4] [%] | % inhibition of SMAD7 mRNA expression ([2]; 2220 nM, Study 2) [%] | % inhibition of SMAD7 mRNA expression ([2]; 6670.0 nM, Study 2) [%] | % inhibition of SMAD7 mRNA expression ([2]; 20000.0 nM, Study 2) | pIC50 [2] | % Inhibition [1, 5] [%] | % inhibition of SMAD7 mRNA expression ([1]; Hep3B cells, electroporation with 10,000 nM antisense oligonucleotide, primer probe set RTS5062, relative to untreated control cells) [%] | % Inhibition [1, 6] [%] | % Inhibition [1, 7] [%] | % inhibition of SMAD7 mRNA expression ([1]; Hep3B cells, electroporation, 10,000 nM, 3-10-3 cEt gapmers targeting SEQ ID NO: 3 and 4) [%]
1 | 799858 (kG*kT*kA*dA*dT*dT*dT*dA*dG*d[5mC]*dA*dA*dT*kT*k[5mC]*k[5mC]; antisense) [compound 799858] | 64 | 18 | 43 | 48 | 71% | 5.70 |  |  |  |  | 
2 | 799878 (kG*k[5mC]*k[5mC]*d[5mC]*d[5mC]*d[5mC]*d[5mC]*dT*d[5mC]*d[5mC]*d[5mC]*d[5mC]*dG*kT*kG*k[5mC]; antisense) [compound 799878] | 70 | 35 | 64 | 68 | 84% | 4.77 |  |  |  |  | 
3 | 799904 (antisense kA*k[5mC]*kT*d[5mC]*dA*dG*dA*dG*d[5mC]*dA*dG*d[5mC]*dT*k[5mC]*kT*k[5mC]) [compound 799904] |  | 3 | 9 | 23 | 62% | 5.10 | 61 |  |  |  | 
4 | 799921 (antisense k[5mC]*kT*kA*dA*dT*dT*dA*dG*dT*dG*dA*d[5mC]*dT*kG*kT*kG) [compound 799921] |  | 10 | 35 | 55 | 58% | 4.96 | 75 |  |  |  | 
5 | 799964 (antisense k[5mC]*k[5mC]*k[5mC]*d[5mC]*dT*dT*dA*dG*d[5mC]*dG*d[5mC]*dA*dT*kT*k[5mC]*kT) [compound 799964] |  | 4 | 15 | 46 | 61% | < 4.70 | 55 |  |  |  | 
6 | 799967 (kG*kA*k[5mC]*dG*dA*dT*dG*dA*dA*dT*d[5mC]*d[5mC]*dT*kG*kG*k[5mC]; antisense) [compound 799967] |  | 0 | 0 | 0 | 20% | 5.05 | 72 |  |  |  | 
7 | 799980 (k[5mC]*k[5mC]*kA*dA*d[5mC]*dG*dG*dT*dT*dG*d[5mC]*d[5mC]*dT*k[5mC]*kA*kT; antisense) [compound 799980] |  | 22 | 22 | 51 | 61% | 4.89 | 78 |  |  |  | 
8 | 800010 (kG*kT*kT*dA*dT*dT*dT*dA*dA*dT*dT*dA*d[5mC]*k[5mC]*k[5mC]*kT; antisense) [compound 800010] | 69 | 33 | 13 | 47 | 59% | 5.22 |  |  |  |  | 
9 | 800025 (kA*kG*kT*dA*d[5mC]*dA*dA*dG*dG*dA*d[5mC]*dT*dA*kA*kG*kG; antisense) [compound 800025] |  | 0 | 42 | 55 | 74% | 5.22 | 65 |  |  |  | 
10 | 800031 (kA*kG*kA*dA*dA*d[5mC]*dA*d[5mC]*dA*dG*dT*dT*d[5mC]*k[5mC]*k[5mC]*kT; antisense) [compound 800031] | 52 | 10 | 39 | 57 | 69% | 5.10 |  |  |  |  | 
11 | 800048 (antisense kT*kG*kG*dA*dA*dA*dG*dG*dA*dA*dG*dA*d[5mC]*kT*k[5mC]*kG) [compound 800048] |  | 0 | 31 | 58 | 58% | 5.40 | 64 |  |  |  | 
12 | 800066 (antisense kT*kG*kT*dT*dT*dT*dA*dA*dG*dT*dA*dG*d[5mC]*kA*kG*k[5mC]) [compound 800066] |  | 7 | 42 | 62 | 82% | 5.05 | 63 |  |  |  | 
13 | 800109 (antisense kA*k[5mC]*kA*dG*d[5mC]*d[5mC]*dA*d[5mC]*dA*dA*dG*dT*d[5mC]*kA*k[5mC]*kA) [compound 800109] |  |  |  |  | 71% and 67% and 93% and 97% | 6.00 | 86 | 75 | 88 |  | 
14 | 829734 (antisense kT*k[5mC]*k[5mC]*dG*d[5mC]*dA*d[5mC]*dA*d[5mC]*d[5mC]*dA*dT*dG*kA*kA*kG) [compound 829734] |  | 20 | 40 | 69 | 68% | 5.40 |  |  | 71 |  | 
15 | 829762 (antisense k[5mC]*k[5mC]*kT*dT*d[5mC]*dA*dG*dA*dT*d[5mC]*d[5mC]*dG*d[5mC]*k[5mC]*kT*k[5mC]) [compound 829762] |  | 27 | 41 | 59 | 78% | < 4.70 |  |  | 67 |  | 
16 | 829767 (antisense kG*kG*kA*dG*dG*d[5mC]*dA*d[5mC]*dG*d[5mC]*dG*dG*dT*kG*k[5mC]*kG) [compound 829767] |  | 5 | 6 | 36 | 49% | 5.52 |  |  | 66 |  | 
17 | 829776 (antisense kG*k[5mC]*kG*dA*dG*dT*dA*dG*dG*dA*d[5mC]*dG*dA*kG*kG*kG) [compound 829776] |  | 26 | 40 | 66 | 81% | 5.30 |  |  | 64 |  | 
18 | 829864 (antisense kG*kG*kG*dT*dA*dA*d[5mC]*dT*dG*d[5mC]*dT*dG*d[5mC]*kG*kG*kT) [compound 829864] |  | 0 | 33 | 67 | 76% | 6.00 |  |  |  | 68 | 
19 | 829942 (kG*k[5mC]*kA*dT*d[5mC]*dT*dG*dG*dA*d[5mC]*dA*dG*dT*k[5mC]*kA*kG; antisense) [compound 829942] |  | 44 | 70 | 84 | 94% | > 6.15 |  |  |  |  | 92
20 | 829956 (k[5mC]*k[5mC]*kT*dT*dG*dT*d[5mC]*dA*d[5mC]*d[5mC]*d[5mC]*dG*dT*k[5mC]*kT*kG; antisense) [compound 829956] |  | 65 | 82 | 89 | 95% | 6.00 |  |  |  | 66 | 
21 | 829980 (kT*kT*kG*dA*dT*dA*dT*dT*dT*dA*dG*d[5mC]*dT*kG*kT*k[5mC]; antisense) [compound 829980] |  | 52 | 63 | 79 | 92% | 5.52 |  |  |  | 56 | 
22 | 829995 (kT*kG*kG*dA*dG*dG*d[5mC]*dA*dG*dG*dG*d[5mC]*d[5mC]*kG*k[5mC]*kG; antisense) [compound 829995] |  | 36 | 74 | 76 | 84% | 5.10 |  |  |  | 78 | 
23 | 830010 (antisense kG*kT*k[5mC]*dT*d[5mC]*dA*dA*dA*dT*dG*dG*dG*d[5mC]*kT*kT*k[5mC]) [compound 830010] |  | 0 | 12 | 52 | 72% | 6.00 |  |  |  | 68 | 
